Laboratory results published in ChEMBL document CHEMBL2401737 (J Med Chem, 2013).
Converted amounts (≈) assume the structure as drawn.

Columns and labels:
[1] = Apparent permeability in MDCK cells; assay type: ADME, cell-based, Canis lupus familiaris; details: dog
[2] = Half life in Sprague-Dawley rat at 1 mg/kg, iv and 5 mg/kg, po administered as capsule by LC-MS/MS analysis; assay type: ADME, organism-based; details: in vivo
[3] = Clearance in Beagle dog at 1 mg/kg, iv and 5 mg/kg, po administered as capsule by LC-MS/MS analysis; assay type: ADME, organism-based, Canis lupus familiaris; details: in vivo
[4] = Volume of distribution at steady state in Beagle dog at 1 mg/kg, iv and 5 mg/kg, po administered as capsule by LC-MS/MS analysis; assay type: ADME, organism-based, Canis lupus familiaris; details: in vivo, read-out: Vdss
[5] = Solubility of the compound in simulated gastrointestinal fluid; assay type: physicochemical
[6] = system: Human immunodeficiency virus; assay: Antiviral activity against pseudo Human immunodeficiency virus infected in HEK293T cells after 2 days in presence of human serum albumin; assay type: functional, organism-based; details: Human immunodeficiency virus 1, HEK-293T, 48 h
[7] = Oral bioavailability in Beagle dog at 5 mg/kg administered as capsule by LC-MS/MS analysis; assay type: ADME, organism-based, Canis lupus familiaris; details: in vivo
[8] = system: Human immunodeficiency virus 1; assay: Antiviral activity against Human immunodeficiency virus 1 3B infected in human MT4 cells after 4 to 5 days by bioluminescence assay in presence of human serum relative to control; assay type: functional
[9] = Fraction unbound in Beagle dog plasma at 1 mg/kg, iv and 5 mg/kg, po administered as capsule by equilibrium dialysis technique; assay type: ADME, organism-based, Canis lupus familiaris
[10] = Half life in rat hepatocytes; assay type: ADME, cell-based, Hepatocyte
[11] = Half life in monkey S9 fraction; assay type: ADME, Macaca mulatta; details: rhesus monkey
[12] = system: Human immunodeficiency virus 1; assay: Antiviral activity against Human immunodeficiency virus 1 Ba-L infected human PBMC after 7 days by [methyl-3H]dTTP incorporation assay; assay type: functional, organism-based; details: 168 h
[13] = Half life in rat S9 fraction; assay type: ADME
[14] = system: Human immunodeficiency virus; assay: Antiviral activity against pseudo Human immunodeficiency virus infected in HEK293T cells after 2 days; assay type: functional, organism-based; details: Human immunodeficiency virus 1, HEK-293T, 48 h
[15] = Fraction unbound in human plasma; assay type: ADME, cell-free
[16] = Clearance in cynomolgus monkey at 1 mg/kg, iv and 5 mg/kg, po administered as capsule by LC-MS/MS analysis; assay type: ADME, organism-based, Macaca fascicularis; details: in vivo
[17] = Volume of distribution at steady state in cynomolgus monkey at 1 mg/kg, iv and 5 mg/kg, po administered as capsule by LC-MS/MS analysis; assay type: ADME, organism-based, Macaca fascicularis; details: in vivo, read-out: Vdss
[18] = Half life in dog S9 fraction; assay type: ADME, Canis lupus familiaris
[19] = Lipophilicity, log D of the compound at pH 7.4 by chromatographic analysis; assay type: physicochemical; details: buffer
[20] = Half life in human S9 fraction; assay type: ADME
[21] = Half life in Beagle dog at 1 mg/kg, iv and 5 mg/kg, po administered as capsule by LC-MS/MS analysis; assay type: ADME, organism-based, Canis lupus familiaris; details: in vivo
[22] = Oral bioavailability in cynomolgus monkey at 5 mg/kg administered as capsule by LC-MS/MS analysis; assay type: ADME, organism-based, Macaca fascicularis; details: in vivo
[23] = Fraction unbound in Sprague-Dawley rat plasma at 1 mg/kg, iv and 5 mg/kg, po administered as capsule by equilibrium dialysis technique; assay type: ADME, organism-based
[24] = system: Human immunodeficiency virus; assay: Antiviral activity against Human immunodeficiency virus harboring integrase Q148K mutant infected in human HeLa cells expressing CD4 after 2 days by beta galactosidase assay relative to wild type HIV; assay type: functional
[25] = system: Human immunodeficiency virus; assay: Ratio of IC50 for pseudo Human immunodeficiency virus to IC50 for pseudo Human immunodeficiency virus in presence of human serum albumin; assay type: functional
[26] = Fraction unbound in cynomolgus monkey plasma at 1 mg/kg, iv and 5 mg/kg, po administered as capsule by equilibrium dialysis technique; assay type: ADME, organism-based, Macaca fascicularis
[27] = Plasma concentration in rat at 5 mg/kg, po after 24 hrs; assay type: ADME, organism-based; parameters: dose 5 mg/kg, route oral
[28] = system: Human immunodeficiency virus 1; assay: Antiviral activity against Human immunodeficiency virus 1 3B infected in human MT4 cells after 4 to 5 days by bioluminescence assay; assay type: functional, organism-based
[29] = Half life in cynomolgus monkey at 1 mg/kg, iv and 5 mg/kg, po administered as capsule by LC-MS/MS analysis; assay type: ADME, organism-based, Macaca fascicularis; details: in vivo
[30] = Half life in human hepatocytes; assay type: ADME, cell-based, Hepatocyte
[31] = biological target: Human immunodeficiency virus type 1 integrase (Human immunodeficiency virus 1, UniProt Q7ZJM1); assay: Inhibition of HIV-1 integrase strand transfer activity using [3H]-DNA as substrate preincubated for 60 mins prior to substrate addition measured after 25 to 45 mins
Chain of Human immunodeficiency virus type 1 integrase (Q7ZJM1 whole entry): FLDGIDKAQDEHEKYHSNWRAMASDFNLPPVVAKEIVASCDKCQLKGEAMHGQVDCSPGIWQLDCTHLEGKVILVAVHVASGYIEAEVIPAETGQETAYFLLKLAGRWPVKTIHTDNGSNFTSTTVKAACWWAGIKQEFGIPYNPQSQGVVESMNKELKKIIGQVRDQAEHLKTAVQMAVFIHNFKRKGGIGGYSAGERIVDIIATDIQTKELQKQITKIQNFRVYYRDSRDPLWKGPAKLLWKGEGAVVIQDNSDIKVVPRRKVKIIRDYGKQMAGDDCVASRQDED

[32] = Ratio of plasma concentration in rat to IC90 for pseudo Human immunodeficiency virus; assay type: ADME, cell-free
[33] = Oral bioavailability in cynomolgus monkey at 5 mg/kg administered as suspension by LC-MS/MS analysis; assay type: ADME, organism-based, Macaca fascicularis; details: in vivo
[34] = Half life in Beagle dog at 1 mg/kg, iv and 5 mg/kg, po administered as suspension by LC-MS/MS analysis; assay type: ADME, organism-based, Canis lupus familiaris; details: in vivo
[35] = Volume of distribution at steady state in Beagle dog at 1 mg/kg, iv and 5 mg/kg, po administered as suspension by LC-MS/MS analysis; assay type: ADME, organism-based, Canis lupus familiaris; details: in vivo, read-out: Vdss
[36] = Volume of distribution at steady state in Sprague-Dawley rat at 1 mg/kg, iv and 5 mg/kg, po administered as suspension by LC-MS/MS analysis; assay type: ADME, organism-based; details: in vivo, read-out: Vdss
[37] = Clearance in cynomolgus monkey at 1 mg/kg, iv and 5 mg/kg, po administered as suspension by LC-MS/MS analysis; assay type: ADME, organism-based, Macaca fascicularis; details: in vivo
[38] = Half life in cynomolgus monkey at 1 mg/kg, iv and 5 mg/kg, po administered as suspension by LC-MS/MS analysis; assay type: ADME, organism-based, Macaca fascicularis; details: in vivo
[39] = Oral bioavailability in Beagle dog at 5 mg/kg administered as suspension by LC-MS/MS analysis; assay type: ADME, organism-based, Canis lupus familiaris; details: in vivo
[40] = Fraction unbound in cynomolgus monkey plasma at 1 mg/kg, iv and 5 mg/kg, po administered as suspension by equilibrium dialysis technique; assay type: ADME, organism-based, Macaca fascicularis
[41] = Half life in Sprague-Dawley rat at 1 mg/kg, iv and 5 mg/kg, po administered as suspension by LC-MS/MS analysis; assay type: ADME, organism-based; details: in vivo
[42] = Oral bioavailability in Sprague-Dawley rat at 5 mg/kg administered as suspension by LC-MS/MS analysis; assay type: ADME, organism-based; details: in vivo
[43] = Clearance in Sprague-Dawley rat at 1 mg/kg, iv and 5 mg/kg, po administered as suspension by LC-MS/MS analysis; assay type: ADME, organism-based; details: in vivo
[44] = Fraction unbound in Beagle dog plasma at 1 mg/kg, iv and 5 mg/kg, po administered as suspension by equilibrium dialysis technique; assay type: ADME, organism-based, Canis lupus familiaris
[45] = Clearance in Beagle dog at 1 mg/kg, iv and 5 mg/kg, po administered as suspension by LC-MS/MS analysis; assay type: ADME, organism-based, Canis lupus familiaris; details: in vivo
[46] = Volume of distribution at steady state in cynomolgus monkey at 1 mg/kg, iv and 5 mg/kg, po administered as suspension by LC-MS/MS analysis; assay type: ADME, organism-based, Macaca fascicularis; details: in vivo, read-out: Vdss
[47] = Fraction unbound in Sprague-Dawley rat plasma at 1 mg/kg, iv and 5 mg/kg, po administered as suspension by equilibrium dialysis technique; assay type: ADME, organism-based

With `C[C@H]1CO[C@@H]2Cn3cc(C(=O)NCc4ccc(F)cc4F)c(=O)c(O)c3C(=O)N12` [CABOTEGRAVIR] the Papp [1] was 42.5 ×10⁻⁶ cm/s, the half-life [2] was > 18 h and the clearance [3] was 0.34 mL/min/kg. It also gave a Vd [4] of 0.14 L/kg, a solubility [5] of 42 µg/mL (≈ 104 µM) and an IC50 [6] of 30 nM. For the same compound, the IC90 [6] was 0.0491 µg/mL, the bioavailability [7] was 8% and the “fold change (FC)” value [8] was 408. The fraction unbound [9] was 0.007, the half-life [10] was > 3.67 h and the half-life [11] was > 3 h. The IC50 [12] was 0.2 nM, the half-life [13] was > 3 h and the IC50 [14] was 0.5 nM. The fraction unbound [15] was 0.004, the clearance [16] was 0.32 mL/min/kg and the Vd [17] was 0.09 L/kg. For the same compound, the half-life [18] was > 3 h, the chromatographic logD [19] was 3.49 and the half-life [20] was > 3 h. For the same compound, the half-life [21] was 5.7 h, the bioavailability [22] was 6.2% and the fraction unbound [23] was < 0.001. For the same compound, the “fold change (FC)” value [24] was 3.9, the “Ratio IC50” value [25] was 60 and the fraction unbound [26] was 0.003. For the same compound, the concentration at 24 h [27] was 9590 ng/mL, the IC50 [28] was 1.3 nM and the half-life [29] was 4 h. The half-life [30] was > 3.67 h, the IC50 [31] was 3 nM and the Ratio [32] was 0.9.
`C[C@@H]1CCO[C@H]2Cn3cc(C(=O)NCc4ccc(F)cc4F)c(=O)c([O-])c3C(=O)N12.[Na+]` [DOLUTEGRAVIR SODIUM] gave a bioavailability [33] of 25%, a Papp [1] of 58.5 ×10⁻⁶ cm/s and a half-life [34] of 5.2 h. It also gave a Vd [35] of 0.3 L/kg, a Vd [36] of 0.1 L/kg and a solubility [5] of 130 µg/mL. It also gave a clearance [37] of 2.1 mL/min/kg, a half-life [38] of 6 h and a bioavailability [39] of 35%. The half-life [10] was > 3.67 h, the fraction unbound [40] was 0.009 and the half-life [41] was 6.2 h. The half-life [11] was > 3 h, the bioavailability [42] was 34% and the clearance [43] was 0.23 mL/min/kg. For the same compound, the half-life [13] was > 3 h, the fraction unbound [15] was 0.007 and the half-life [18] was > 3 h. For the same compound, the fraction unbound [44] was 0.046, the chromatographic logD [19] was 3.67 and the half-life [20] was > 3 h. The clearance [45] was 2.2 mL/min/kg, the Vd [46] was 0.3 L/kg and the fraction unbound [47] was 0.001. The concentration at 24 h [27] was 908 ng/mL and the half-life [30] was > 3.67 h.
